In one experiment the target is Alpha-enolase (Homo sapiens, UniProt P06733). The experiment is described as follows: Enolase Enzymatic Assays. As to conditions: pH 7.4. As to the method: (§1) Enolase activity was measured by two different methods: a fluorometric NADH-linked assay or adirect spectrophotometric assay via formation of PEP. In the fluorescent assay,enolase activity was measured via NADH oxidation in a pyruvate kinase-dehydrogenase coupled assay. The assay is conducted in 10 mM KCl, 5 mM MgSO4, and 100 mM triethanolamine at pH 7.4, with 400 uM NADH and 2 mM ADP. 2-PGA, pyruvate kinase (PK) and lactate dehydrogenase(LDH) are provided in excess, with conversion of 2-PGA to PEP by enolase being rate limiting. PEP (with ADP) is substrate of PK; pyruvate formed by thisreaction is linked to NADH oxidation by LDH. Enolase activity is determinedby fluorescence measurement of oxidation of NADH by excitation at 340 nmand emission at 460 nm. The substrate concentration was 5 mM 2-PGA unlessotherwise indicated. Fluorescence was measured using an Omega FluorescencePlate Reader (BMG Labtech). Alternatively, enolase activity was measured directly by the appearance of PEP from 2-PGA via absorption at 240 nm. The assay medium was the same, except that all the auxiliary reagents (PK or LDH, NADH and ADP) are omitted. Both assays were conducted in a 96-well plate format, with the direct assay performed in UV-transmissible plates.
Sequence of Alpha-enolase (P06733 whole entry): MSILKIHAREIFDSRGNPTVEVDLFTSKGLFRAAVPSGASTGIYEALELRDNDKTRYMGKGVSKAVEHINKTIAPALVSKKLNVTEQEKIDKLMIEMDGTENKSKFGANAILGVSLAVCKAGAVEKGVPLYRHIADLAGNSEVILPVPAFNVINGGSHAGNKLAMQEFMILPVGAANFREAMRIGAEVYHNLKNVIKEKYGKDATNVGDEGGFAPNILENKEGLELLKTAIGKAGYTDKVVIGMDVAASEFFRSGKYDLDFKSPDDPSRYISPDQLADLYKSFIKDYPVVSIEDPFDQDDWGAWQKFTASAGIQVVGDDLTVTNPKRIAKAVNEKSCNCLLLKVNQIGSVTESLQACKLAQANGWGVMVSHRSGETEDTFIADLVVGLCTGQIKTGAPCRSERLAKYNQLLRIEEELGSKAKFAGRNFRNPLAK

For another experiment, the target named is Gamma-enolase (Homo sapiens, UniProt P09104). Nature of the experiment: Enolase Enzymatic Assays. The conditions noted are these: pH 7.4. As to the method: as §1
Sequence of Gamma-enolase (P09104 whole entry): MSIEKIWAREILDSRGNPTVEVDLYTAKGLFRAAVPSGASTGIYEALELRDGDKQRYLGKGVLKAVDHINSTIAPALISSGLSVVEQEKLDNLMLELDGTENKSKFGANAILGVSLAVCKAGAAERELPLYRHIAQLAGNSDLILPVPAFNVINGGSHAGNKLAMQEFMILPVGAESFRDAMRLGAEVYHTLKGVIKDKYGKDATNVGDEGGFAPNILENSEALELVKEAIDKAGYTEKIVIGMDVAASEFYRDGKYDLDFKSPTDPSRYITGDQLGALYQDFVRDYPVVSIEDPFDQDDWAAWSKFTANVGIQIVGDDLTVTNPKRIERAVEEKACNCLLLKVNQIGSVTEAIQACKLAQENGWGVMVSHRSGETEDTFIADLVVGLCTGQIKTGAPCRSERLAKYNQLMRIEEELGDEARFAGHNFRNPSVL

As for `O=C(CP(=O)(O)O)NO` [phosphonoacetohydroxamate (PhAH)], the IC50 (usually the midpoint of a concentration-inhibition curve) at Alpha-enolase came out at 53.2 nM; against Gamma-enolase it was 62.3 nM.

Turning to `O=C1[C@@H](P(=O)(O)O)C[C@H](O)N1O` [SF2312], the results for the IC50 against Alpha-enolase and against Gamma-enolase were 37.9 nM and 42.5 nM, respectively.
